Results from article PMC10085060 (Oncotarget, 2023).

Key:
[1] = Day 10 of riluzole single agent treatment (100 mg BID), advanced melanoma patients, n = 9; cited from earlier work
[2] = Drug related adverse events (CTCAE version 4.0); assay type: in vivo, human
Protocol: Safety assessments including complete blood counts, serum chemistries, liver enzymes and toxicity evaluations were completed at baseline, day 1 and 15 of cycle 1, and then day 1 of every cycle thereafter. Toxicities were evaluated and graded using the CTEP NCI Common Terminology Criteria for Adverse Events (CTCAE), version 4.0.

RAF1 = conditions: cited from earlier work
[3] = drug related AE, Grade ≥3, n=35
[4] = drug related AE, any grade, n=35

Nc1nc2ccc(OC(F)(F)F)cc2s1 [riluzole]
78.4 ng/mL: riluzole trough levels, geomean [1]
